Measurements published in paper PMC7997578, “Design, Synthesis, Dynamic Docking, Biochemical Characterization, and in Vivo Pharmacokinetics Studies of Novel Topoisomerase II Poisons with Promising Antiproliferative Activity” (Journal of Medicinal Chemistry, 2020).
Like-named read-outs stand apart in the source and are kept apart here.

Tests used:
[1] = tested on: HeLa cells; experiment: cell viability MTT assay, HeLa; format: cell-based, human; conditions: HeLa cervical cancer cells, mean ± SD of two experiments, read-out: HeLa antiproliferative activity IC50
Protocol: (§1) The antiproliferative activity of all compounds was evaluated in (i) DU145, an androgen-independent prostate cancer cell line; (ii) HeLa, a cervical cancer cell line; and (iii) A549, a lung adenocarcinoma cell line (Table 1). […] Undoubtedly, this preliminary cytotoxicity data will need further characterization, also in relation to the in vitro activity of these compounds.
(§2) Human cancer cell lines A549 (lung adenocarcinoma, ATCC CCL-185), DU-145 (androgen-independent prostate cancer, ATCC HTB-81), and HeLa (cervical carcinoma, ATCC CCL-2) were obtained from ATCC. Cells were routinely grown in minimal essential medium containing Eagle’s salts and L-glutamine supplemented with 10% heat-inactivated FBS in a humidified atmosphere of 5% CO2 at 37 °C. To assess the antiproliferative activity of the compounds, cells were seeded at a density of 2500 cells/well (HeLa) or 5000 cells/well (A549, DU-145) in 96-well plates, and cell viability was measured using the MTT assay as described previously.[39] Values are reported as the mean ± SD of two independent experiments.

[2] = target: T1, human topoIIα (Homo sapiens, UniProt P11388); experiment: topoII decatenation assay (Inspiralis); format: biochemical
T1 construct: purchased Inspiralis
Protocol: We measured the inhibitor activity of our new compounds against human topoIIα, using a topoII decatenation assay (Table 1).
The activity of topoIIα was measured using a decatenation assay (Inspiralis) following the manufacturer’s instructions. Compounds were dissolved in DMSO and used at a concentration ranging from 200 to 1 μM. Final DMSO concentration in the assay was ≤1%. Reaction mixtures were incubated for 30 min at 37 °C and terminated with STEB buffer (40% (w/v) sucrose, 100 mM Tris-HCl, pH 8, 1 mM EDTA, 0.5 mg/mL bromophenol blue). Reaction products were resolved by electrophoresis in 1% agarose gels containing SYBR Safe DNA stain (Invitrogen), scanned, and quantified using the ChemiDoc system (BioRad). IC50 values were obtained with GraphPad Prism software (version 5.03) using the band intensities of the dose–response gels. Values are reported as the mean ± SD of two independent experiments.

[3] = tested on: A549 cells; experiment: cell viability MTT assay, A549; format: cell-based, human; conditions: mean ± SD of two experiments, read-out: A549 antiproliferative activity IC50
Protocol: as §1, §2

[4] = tested on: DU145 cells; experiment: cell viability MTT assay, DU145; format: cell-based, human; conditions: mean ± SD of two experiments, read-out: DU145 antiproliferative activity IC50
Protocol: as §1, §2

[5] = target: T2, topoII/DNA cleavage complex (Homo sapiens, UniProt P11388); experiment: topoisomerase II cleavage complex assay; format: biochemical
T2 construct: purchased Inspiralis
Protocol: Figure 2 Poison activity of the hybrid compounds. Agarose gel electrophoresis of plasmid DNA incubated in the absence (no enzyme) or presence of 1 U of topoII containing either 1% DMSO as control vehicle (no enzyme and topoII lanes) or 200 μM compound. Labels are shown above each lane. Numbers at the bottom correspond to the normalized intensity of the linear form (FIII). Plasmid forms are indicated by the arrow-points on the right: supercoiled (FI), nicked (FII), and linear (FIII).
Poison activity of the compounds was evaluated using a cleavage complex assay (Inspiralis) as described previously.[60] Compounds were tested at a fixed concentration of 200 μM in the presence of 1 U of topoisomerase II and 500 ng of […] plasmid at 37 °C for 6 min. Final DMSO concentration in the assay was 1%. Reaction products were subjected to electrophoresis in a 1% agarose gel, stained with SYBR Safe DNA stain, and DNA bands were visualized and quantified as described above.

T2 sequence (P11388 whole entry, one chain of several): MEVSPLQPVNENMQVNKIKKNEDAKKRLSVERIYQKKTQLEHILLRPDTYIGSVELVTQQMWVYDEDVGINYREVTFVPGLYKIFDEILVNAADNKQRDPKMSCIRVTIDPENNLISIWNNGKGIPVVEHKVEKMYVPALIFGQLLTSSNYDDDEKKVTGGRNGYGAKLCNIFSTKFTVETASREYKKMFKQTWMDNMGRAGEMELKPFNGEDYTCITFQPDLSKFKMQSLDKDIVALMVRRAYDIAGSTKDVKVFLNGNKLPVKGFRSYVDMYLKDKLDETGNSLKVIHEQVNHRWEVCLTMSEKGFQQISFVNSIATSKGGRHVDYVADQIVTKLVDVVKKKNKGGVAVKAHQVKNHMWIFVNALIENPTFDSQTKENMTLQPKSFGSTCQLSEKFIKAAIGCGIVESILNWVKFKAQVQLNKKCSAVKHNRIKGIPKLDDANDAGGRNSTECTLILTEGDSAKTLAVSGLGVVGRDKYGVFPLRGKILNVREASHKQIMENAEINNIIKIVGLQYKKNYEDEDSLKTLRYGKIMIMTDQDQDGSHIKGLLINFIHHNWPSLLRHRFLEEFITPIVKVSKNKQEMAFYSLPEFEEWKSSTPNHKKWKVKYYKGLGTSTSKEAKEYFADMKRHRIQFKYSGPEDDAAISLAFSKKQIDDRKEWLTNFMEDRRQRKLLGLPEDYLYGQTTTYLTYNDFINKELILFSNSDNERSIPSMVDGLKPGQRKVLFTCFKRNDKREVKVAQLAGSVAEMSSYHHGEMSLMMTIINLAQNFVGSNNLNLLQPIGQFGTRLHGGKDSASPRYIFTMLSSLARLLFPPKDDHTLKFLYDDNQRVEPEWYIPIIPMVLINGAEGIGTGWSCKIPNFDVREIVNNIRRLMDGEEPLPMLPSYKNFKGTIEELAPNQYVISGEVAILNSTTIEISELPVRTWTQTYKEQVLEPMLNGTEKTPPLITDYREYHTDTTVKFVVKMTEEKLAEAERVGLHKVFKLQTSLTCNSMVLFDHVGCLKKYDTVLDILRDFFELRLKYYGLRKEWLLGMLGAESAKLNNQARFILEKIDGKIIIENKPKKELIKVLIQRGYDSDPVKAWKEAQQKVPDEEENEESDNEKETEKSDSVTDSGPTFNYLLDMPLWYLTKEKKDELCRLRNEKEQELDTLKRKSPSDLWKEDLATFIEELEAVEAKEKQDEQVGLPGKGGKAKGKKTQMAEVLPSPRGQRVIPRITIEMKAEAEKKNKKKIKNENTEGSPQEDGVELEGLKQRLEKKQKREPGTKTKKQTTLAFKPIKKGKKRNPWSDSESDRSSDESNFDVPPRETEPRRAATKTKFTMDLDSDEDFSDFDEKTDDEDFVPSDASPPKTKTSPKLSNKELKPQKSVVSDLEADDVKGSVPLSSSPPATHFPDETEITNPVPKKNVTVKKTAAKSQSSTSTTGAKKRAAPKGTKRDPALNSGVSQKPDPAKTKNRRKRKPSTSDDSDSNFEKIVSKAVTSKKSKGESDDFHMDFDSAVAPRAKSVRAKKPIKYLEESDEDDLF
T1 sequence (P11388 whole entry): as the sequence (P11388 whole entry, one chain of several) above

SMILES: O=C(Nc1cccc(OC(F)(F)F)c1)c1c(O)n(-c2ccccc2)c(=S)n(-c2ccccc2)c1=O [3f, 6-Hydroxy-4-oxo-1,3-diphenyl-2-thioxo-N-(3-(trifluoromethoxy)phenyl)-1,2,3,4-tetrahydropyrimidine-5-carboxamide]
- IC50 [1]: 3.8 ± 0.3 µM
- IC50 ([1]; Homo sapiens, HeLa): < 5 µM
- IC50 ([2]; human topoIIα decatenation assay, mean ± SD of two independent experiments, read-out: IC50): 7.3 ± 1.5 µM
- fold increased activity compared to ARN16267 ([2]; topoIIα decatenation IC50 versus ARN16267): 2 fold
- IC50 ([3]; A549 lung adenocarcinoma cells): 3.1 ± 0.1 µM
- IC50 ([3]; Homo sapiens, A549, A549 lung adenocarcinoma cells): < 5 µM
- IC50 ([4]; DU145 prostate cancer cells): 4.7 ± 0.1 µM
- IC50 ([4]; Homo sapiens, DU-145, DU145 prostate cancer cells): < 5 µM
- mode of action in cleavage complex formation assay ([5]; 200 μM compound, 1 U topoII, plasmid DNA): confirmed to be poisons
- poison efficacy, fold better than ARN16267 ([5]; 200 μM concentration, linear form (FIII) intensity): about 1.5 fold
